Read-outs that look alike come from different tables or passages of the source. Where a SMILES comes first, the peptide text is derived from it.
Assays:
[1] = target: T1, NRP-1 (Homo sapiens, UniProt O14786); assay: NRP-1 binding assay: inhibition of (bt)-VEGF-A165 binding to immobilized NRP-1, chemiluminescent detection
Experimental: More precisely, the inventors have shown that the compounds of formula (I) disclosed herein bind to NRP-1 at the nanomolar level whereas the most efficient known inhibitors to date bind to NRP-1 at the micromolar level.
The flat bottom surface of a 96-well plate was coated with 100 μL (200 ng/well) recombinant human NRP-1 and incubated overnight at 4° C. Non-specific binding was blocked by the incubation with 0.5% BSA in PBS. 50 μL of peptide dissolved in PBS in range concentrations and 50 μL (400 ng/mL) of human (bt)-VEGF-A165 in PBS containing 4 μg/mL of heparin were added respectively. After 2 h incubation at room temperature the plate was washed and treated with streptavidin-horseradish peroxidase conjugate in PBS (1:8000). Chemiluminescence was quantified immediately after addition of 100 μL Chemiluminescent substrate. In a positive control only (bt)-VEGF-A165 was present in wells, while, in negative control, wells were not coated by NRP-1. Percentages of inhibition were calculated by the following formula: 100%−[[(S−[…])/(P−NS)]·100%] where S is the signal intensity measured, NS is the signal measured in negative control, and P is the signal measured in positive control.
Selected active branched peptides were tested again using a more sensitive method with chemiluminescent detection. Moreover, some modified compounds were also examined. The IC50 for selected Lys(hArg)-X-X-Arg peptides was between 2-21 μM (Puszko A. K. at al. Neuropilin-1 peptide-like ligands with proline mimetics, tested using the improved chemiluminescence affinity detection method. MedChemComm, 2019, Vol. 10: 332-340).

[2] = target: T1, NRP-1; conditions: comparative branched peptides without cysteine; colorimetric method; cited from earlier work
[3] = target: T1, NRP-1; conditions: further comparative branched peptides without cysteine; chemiluminescent detection (Puszko et al. 2019); cited from earlier work
[4] = peptides of formula (I), chemiluminescence binding assay, read-out: IC50

T1 sequence (O14786 22-923): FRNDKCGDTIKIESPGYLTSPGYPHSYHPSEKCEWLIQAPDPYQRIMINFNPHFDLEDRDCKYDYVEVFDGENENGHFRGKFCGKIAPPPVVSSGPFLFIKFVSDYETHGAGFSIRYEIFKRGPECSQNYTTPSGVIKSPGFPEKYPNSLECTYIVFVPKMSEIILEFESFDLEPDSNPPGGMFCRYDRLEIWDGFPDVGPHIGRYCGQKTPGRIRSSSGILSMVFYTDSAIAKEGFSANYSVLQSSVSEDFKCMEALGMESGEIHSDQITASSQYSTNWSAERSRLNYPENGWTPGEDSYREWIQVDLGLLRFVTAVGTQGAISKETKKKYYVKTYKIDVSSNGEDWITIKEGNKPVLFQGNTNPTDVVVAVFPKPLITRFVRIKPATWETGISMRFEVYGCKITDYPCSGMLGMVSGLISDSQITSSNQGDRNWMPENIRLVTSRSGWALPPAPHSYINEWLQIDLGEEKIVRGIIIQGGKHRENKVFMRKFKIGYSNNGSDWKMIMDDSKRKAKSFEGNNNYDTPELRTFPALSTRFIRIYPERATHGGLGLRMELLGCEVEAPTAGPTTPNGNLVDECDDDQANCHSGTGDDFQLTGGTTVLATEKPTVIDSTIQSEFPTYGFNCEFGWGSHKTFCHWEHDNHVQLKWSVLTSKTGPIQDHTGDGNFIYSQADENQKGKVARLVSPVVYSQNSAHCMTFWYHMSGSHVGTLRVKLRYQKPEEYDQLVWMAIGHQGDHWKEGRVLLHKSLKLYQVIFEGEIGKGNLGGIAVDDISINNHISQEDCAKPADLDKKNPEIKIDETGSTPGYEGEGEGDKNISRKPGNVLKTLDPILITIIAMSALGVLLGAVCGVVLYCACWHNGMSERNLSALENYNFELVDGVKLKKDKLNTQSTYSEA

Compound	IC50 [2]	IC50 [1, 4]	also measured
C[C@@H](O)[C@H](N)C(=O)N[C@@H](CCCCN)C(=O)N1CCC[C@H]1C(=O)N[C@@H](CCCNC(=N)N)C(=O)O [TKPR] (H-TKPR-OH; N-terminus and C-terminus assumed)			IC50 ([1]; parent tetrapeptide without N-terminal Cys, VEGF-A165/NRP-1 binding, read-out: IC50 [μM] without Cys): > 100 µM
N=C(N)NCCCC[C@H](N)C(=O)NCCCC[C@H](N)C(=O)N1CCC[C@H]1C(=O)N1CCC[C@H]1C(=O)N[C@@H](CCCNC(=N)N)C(=O)O [H-Lys(hArg)-Pro-Pro-Arg-OH] (HELM PEPTIDE1{K.P.P.R}|PEPTIDE2{[N=C(N)NCCCC[C@H](N)C(=O)[*:2]]}$PEPTIDE1,PEPTIDE2,1:R3-1:R2$$$V2.0)	1000 nM		
H-Lys(hArg)-Dab-Oic-Arg-OH			IC50 [3]: 2300 nM
N=C(N)NCCCC[C@H](N)C(=O)NCCCC[C@H](NC(=O)[C@@H](N)CS)C(=O)N[C@@H](CCN)C(=O)N1C2CCCCC2C[C@H]1C(=O)N[C@@H](CCCNC(=N)N)C(=O)O (stereo partly drawn) [H-Cys-Lys(hArg)-Dab-Oic-Arg-OH] (HELM PEPTIDE1{C.K.[Dab].[O=C([C@@H]1CC2CCCCC2N1[*:1])[*:2]].R}|PEPTIDE2{[N=C(N)NCCCC[C@H](N)C(=O)[*:2]]}$PEPTIDE1,PEPTIDE2,2:R3-1:R2$$$V2.0)		0.05 µM	
N=C(N)NCCCC[C@H](N)C(=O)NCCCC[C@H](NC(=O)[C@@H](N)CS)C(=O)N[C@@H](CCN)C(=O)N1CC=C[C@H]1C(=O)N[C@@H](CCCNC(=N)N)C(=O)O [H-Cys-Lys(hArg)-Dab-ΔPro-Arg-OH] (HELM PEPTIDE1{C.K.[Dab].[O=C([C@@H]1C=CCN1[*:1])[*:2]].R}|PEPTIDE2{[N=C(N)NCCCC[C@H](N)C(=O)[*:2]]}$PEPTIDE1,PEPTIDE2,2:R3-1:R2$$$V2.0)		0.07 µM	
N=C(N)NCCCC[C@H](N)C(=O)NCCCC[C@H](N)C(=O)N1CCC[C@H]1C(=O)N[C@@H](CCN)C(=O)N[C@@H](CCCNC(=N)N)C(=O)O [H-Lys(hArg)-Pro-Dab-Arg-OH] (HELM PEPTIDE1{K.P.[Dab].R}|PEPTIDE2{[N=C(N)NCCCC[C@H](N)C(=O)[*:2]]}$PEPTIDE1,PEPTIDE2,1:R3-1:R2$$$V2.0)	200 nM		
N=C(N)NCCCC[C@H](NC(=O)[C@@H](N)CS)C(=O)NCCCC[C@H](N)C(=O)N[C@@H](CCN)C(=O)N1CC=C[C@H]1C(=O)N[C@@H](CCCNC(=N)N)C(=O)O [H-Lys(Cys-hArg)-Dab-ΔPro-Arg-OH] (HELM PEPTIDE1{K.[Dab].[O=C([C@@H]1C=CCN1[*:1])[*:2]].R}|PEPTIDE2{C.[N=C(N)NCCCC[C@H](N[*:1])C(=O)[*:2]]}$PEPTIDE1,PEPTIDE2,1:R3-2:R2$$$V2.0)		0.06 µM	
N=C(N)NCCCC[C@H](N)C(=O)NCCCC[C@H](N)C(=O)N[C@@H](CCN)C(=O)N1CCC[C@H]1C(=O)N[C@@H](CCCNC(=N)N)C(=O)O [H-Lys(hArg)-Dab-Pro-Arg-OH] (HELM PEPTIDE1{K.[Dab].P.R}|PEPTIDE2{[N=C(N)NCCCC[C@H](N)C(=O)[*:2]]}$PEPTIDE1,PEPTIDE2,1:R3-1:R2$$$V2.0)	200 nM		
H-Lys(hArg)-Oic-Oic-Arg-OH			IC50 [3]: 7200 nM
N=C(N)NCCCC[C@H](N)C(=O)NCCCC[C@H](N)C(=O)N[C@@H](CN)C(=O)N1CCC[C@H]1C(=O)N[C@@H](CCCNC(=N)N)C(=O)O [H-Lys(hArg)-Dap-Pro-Arg-OH] (HELM PEPTIDE1{K.[NC[C@H](N[*:1])C(=O)[*:2]].P.R}|PEPTIDE2{[N=C(N)NCCCC[C@H](N)C(=O)[*:2]]}$PEPTIDE1,PEPTIDE2,1:R3-1:R2$$$V2.0)	200 nM		
N=C(N)NCCCC[C@H](NC(=O)[C@@H](N)CS)C(=O)NCCCC[C@H](N)C(=O)N[C@@H](CCN)C(=O)N1C2CCCCC2C[C@H]1C(=O)N[C@@H](CCCNC(=N)N)C(=O)O (stereo partly drawn) [H-Lys(Cys-hArg)-Dab-Oic-Arg-OH] (HELM PEPTIDE1{K.[Dab].[O=C([C@@H]1CC2CCCCC2N1[*:1])[*:2]].R}|PEPTIDE2{C.[N=C(N)NCCCC[C@H](N[*:1])C(=O)[*:2]]}$PEPTIDE1,PEPTIDE2,1:R3-2:R2$$$V2.0)		0.04 µM	

Source: patent publication US12590122B2, “NRP-1 binding inhibitory peptides and uses thereof” (priority 2019, dated 2026)
